Like-named read-outs stand apart in the source and are kept apart here. Non-standard residues stand in square brackets, D forms with d. Residues, ends and D or L forms follow the SMILES beside them. *: point of attachment. pY = N[C@@H](Cc1ccc(OP(=O)(O)O)cc1)C(=O)O; Caffeoyl = O=C(/C=C/c1ccc(O)c(O)c1)*
What was measured:
TNS2 = target: T1, TNS2 (Homo sapiens, UniProt Q63HR2); test: biochemical; assay type: binding; details: for remaining activity at 10 µM: read-out: percent of DMSO vehicle control
T1 construct: made in house; host or cells: HEK293 (transient transfection), unpurified extract
T1 sequence (Q63HR2 1-1409): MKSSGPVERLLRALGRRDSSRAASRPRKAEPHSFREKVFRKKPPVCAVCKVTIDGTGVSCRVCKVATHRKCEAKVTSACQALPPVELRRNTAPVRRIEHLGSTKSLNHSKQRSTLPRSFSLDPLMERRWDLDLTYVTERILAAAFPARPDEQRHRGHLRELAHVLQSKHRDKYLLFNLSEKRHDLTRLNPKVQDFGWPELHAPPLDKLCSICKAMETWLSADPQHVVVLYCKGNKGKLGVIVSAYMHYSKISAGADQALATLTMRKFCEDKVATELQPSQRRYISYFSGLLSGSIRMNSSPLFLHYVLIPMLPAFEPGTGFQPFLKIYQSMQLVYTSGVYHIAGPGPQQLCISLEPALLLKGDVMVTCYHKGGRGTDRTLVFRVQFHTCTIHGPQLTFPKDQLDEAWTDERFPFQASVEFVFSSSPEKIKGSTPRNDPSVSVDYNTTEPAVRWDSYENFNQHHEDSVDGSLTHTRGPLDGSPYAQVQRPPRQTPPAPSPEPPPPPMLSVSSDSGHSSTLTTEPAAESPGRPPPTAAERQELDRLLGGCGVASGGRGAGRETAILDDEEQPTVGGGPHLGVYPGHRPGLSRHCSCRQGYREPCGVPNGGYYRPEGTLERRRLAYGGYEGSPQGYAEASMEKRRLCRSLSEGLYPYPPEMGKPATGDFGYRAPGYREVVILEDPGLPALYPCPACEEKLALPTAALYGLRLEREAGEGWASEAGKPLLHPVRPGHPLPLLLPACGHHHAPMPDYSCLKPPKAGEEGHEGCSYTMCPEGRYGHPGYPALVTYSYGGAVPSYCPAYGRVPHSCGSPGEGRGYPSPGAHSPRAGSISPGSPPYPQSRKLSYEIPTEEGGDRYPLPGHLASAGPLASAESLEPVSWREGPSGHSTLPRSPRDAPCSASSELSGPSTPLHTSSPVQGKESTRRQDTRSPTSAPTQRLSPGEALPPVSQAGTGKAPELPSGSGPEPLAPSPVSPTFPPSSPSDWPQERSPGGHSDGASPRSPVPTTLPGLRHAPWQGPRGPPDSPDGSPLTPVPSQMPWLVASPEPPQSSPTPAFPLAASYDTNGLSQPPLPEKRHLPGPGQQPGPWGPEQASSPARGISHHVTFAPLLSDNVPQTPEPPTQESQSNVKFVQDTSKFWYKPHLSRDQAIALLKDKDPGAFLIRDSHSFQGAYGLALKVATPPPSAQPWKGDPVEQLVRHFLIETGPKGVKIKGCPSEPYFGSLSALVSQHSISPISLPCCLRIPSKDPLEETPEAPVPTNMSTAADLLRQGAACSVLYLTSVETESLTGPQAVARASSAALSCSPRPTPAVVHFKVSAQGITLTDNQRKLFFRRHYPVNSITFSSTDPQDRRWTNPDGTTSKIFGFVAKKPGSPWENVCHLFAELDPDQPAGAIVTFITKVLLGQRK

GRB14 = target: T2, GRB14 (Homo sapiens, UniProt Q14449); test: biochemical; assay type: binding; details: for remaining activity at 10 µM: read-out: percent of DMSO vehicle control
T2 construct: the DNA-tagged SH2 domain concentrations used in this study were <0.1 nM; made in house; host or cells: HEK293 (transient transfection; unpurified extract)
T2 sequence (Q14449 439-535 limits assumed): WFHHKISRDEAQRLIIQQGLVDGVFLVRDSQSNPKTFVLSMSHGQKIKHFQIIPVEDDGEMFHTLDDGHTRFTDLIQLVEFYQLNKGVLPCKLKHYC

GRAP = target: T3, GRAP (Homo sapiens, UniProt Q13588); test: biochemical; assay type: binding
T3 construct: the DNA-tagged SH2 domain concentrations used in this study were <0.1 nM; made in house; host or cells: HEK293 (transient transfection; unpurified extract)
T3 sequence (Q13588 60-154 limits assumed): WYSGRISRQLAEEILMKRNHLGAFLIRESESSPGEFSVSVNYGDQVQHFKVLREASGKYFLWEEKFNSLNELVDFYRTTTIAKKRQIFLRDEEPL

SOCS7 = target: T4, SOCS7 (Homo sapiens, UniProt O14512); test: biochemical; assay type: binding; details: for remaining activity at 10 µM: read-out: percent of DMSO vehicle control
T4 construct: made in house; host or cells: HEK293 (transient transfection), unpurified extract
T4 sequence (O14512 1-581): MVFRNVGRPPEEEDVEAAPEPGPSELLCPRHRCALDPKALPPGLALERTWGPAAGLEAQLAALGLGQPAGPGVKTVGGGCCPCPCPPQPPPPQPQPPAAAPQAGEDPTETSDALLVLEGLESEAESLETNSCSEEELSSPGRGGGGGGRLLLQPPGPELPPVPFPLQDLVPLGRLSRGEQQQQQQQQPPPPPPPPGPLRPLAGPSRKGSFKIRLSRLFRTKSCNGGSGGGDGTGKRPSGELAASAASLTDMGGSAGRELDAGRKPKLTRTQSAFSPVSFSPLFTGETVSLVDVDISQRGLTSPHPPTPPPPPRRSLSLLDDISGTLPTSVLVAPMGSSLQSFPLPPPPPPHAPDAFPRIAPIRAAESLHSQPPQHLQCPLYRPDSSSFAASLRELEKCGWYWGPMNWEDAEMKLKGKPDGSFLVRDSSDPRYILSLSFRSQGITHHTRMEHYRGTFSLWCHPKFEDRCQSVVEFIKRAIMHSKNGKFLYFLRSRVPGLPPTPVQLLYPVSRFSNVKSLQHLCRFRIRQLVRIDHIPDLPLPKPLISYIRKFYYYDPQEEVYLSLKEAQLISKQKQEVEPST

[1] = target: T5, STAT3(S614R)-nonphosphorylated (Homo sapiens, UniProt P40763, S614R); test: biochemical; assay type: binding
T5 construct: made in house; host or cells: HEK293 (transient transfection), unpurified extract, dephosphorylated by endogenous phosphatases
T5 sequence (P40763 whole entry S614R): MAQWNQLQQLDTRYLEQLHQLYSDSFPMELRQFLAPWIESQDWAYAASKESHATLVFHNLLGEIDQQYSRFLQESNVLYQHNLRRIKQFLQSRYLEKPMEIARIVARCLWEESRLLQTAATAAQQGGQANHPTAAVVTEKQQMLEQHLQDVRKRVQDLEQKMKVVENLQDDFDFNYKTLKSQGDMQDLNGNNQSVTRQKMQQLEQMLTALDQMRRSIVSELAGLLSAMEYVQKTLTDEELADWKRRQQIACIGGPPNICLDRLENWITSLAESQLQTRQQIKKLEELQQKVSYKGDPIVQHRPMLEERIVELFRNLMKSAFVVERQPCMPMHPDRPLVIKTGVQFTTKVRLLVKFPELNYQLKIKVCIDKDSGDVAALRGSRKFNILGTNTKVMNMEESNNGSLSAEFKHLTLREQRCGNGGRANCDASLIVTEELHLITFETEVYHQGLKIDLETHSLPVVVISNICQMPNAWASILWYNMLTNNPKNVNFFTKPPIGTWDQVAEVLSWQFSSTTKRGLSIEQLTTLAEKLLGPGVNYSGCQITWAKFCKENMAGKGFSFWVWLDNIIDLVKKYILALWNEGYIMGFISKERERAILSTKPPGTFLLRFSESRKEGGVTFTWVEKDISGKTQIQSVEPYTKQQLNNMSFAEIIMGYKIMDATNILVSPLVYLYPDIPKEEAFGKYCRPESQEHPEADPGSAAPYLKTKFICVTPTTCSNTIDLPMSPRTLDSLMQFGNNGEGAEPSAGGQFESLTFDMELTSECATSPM

SYK(SH2dom1.dom2.) = target: T6, SYK(SH2dom1.dom2.) (Homo sapiens, UniProt P43405); assay type: binding; details: primary screen, 10 μM
T6 construct: the SH2 domains for these targets are expressed in tandem constructs; made in house; host or cells: HEK293 (transient transfection), unpurified extract

[2] = target: T7, STAT3(D661Y)-nonphosphorylated (Homo sapiens, UniProt P40763, D661Y); test: biochemical; assay type: binding
T7 construct: made in house; host or cells: HEK293 (transient transfection), unpurified extract, dephosphorylated by endogenous phosphatases
T7 sequence (P40763 whole entry D661Y): as the sequence (P40763 whole entry S614R) above, with R614S, D661Y counted along it

ZAP70(SH2dom1.dom2.) = target: T8, ZAP70(SH2dom1.dom2.) (Homo sapiens, UniProt P43403); test: biochemical; details: for remaining activity at 10 µM: read-out: percent of DMSO vehicle control
T8 sequence (P43403 1-254 limits assumed): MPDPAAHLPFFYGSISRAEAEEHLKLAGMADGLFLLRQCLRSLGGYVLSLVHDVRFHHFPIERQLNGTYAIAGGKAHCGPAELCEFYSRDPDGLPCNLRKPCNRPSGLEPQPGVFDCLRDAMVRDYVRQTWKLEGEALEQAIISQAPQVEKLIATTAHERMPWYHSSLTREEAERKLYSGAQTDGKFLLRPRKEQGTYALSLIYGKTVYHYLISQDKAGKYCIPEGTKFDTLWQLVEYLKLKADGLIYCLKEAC

[3] = read-out: percent of DMSO vehicle control
[4] = primary screen, 10 μM, read-out: percent of DMSO vehicle control

Molecule `CC[C@H](C)[C@H](NC(=O)[C@H](CO)NC(=O)[C@H](CC(C)C)NC(=O)[C@H](CCCNC(=N)N)NC(=O)[C@H](CO)NC(=O)[C@H](CS)NC(C)=O)C(=O)N[C@@H](Cc1ccc(OP(=O)(O)O)cc1)C(=O)N[C@@H](CC(=O)O)C(=O)N[C@@H](CC(N)=O)C(=O)N[C@H](C(=O)N1CCC[C@H]1C(=O)NCC(N)=O)C(C)C` [Ac-CSRLSIpYDNVPG-NH2] (Ac-CSRLSI[pY]DNVPG-NH2) has a Kd (TNS2) of 466 ± 450 nM.

With `CC[C@H](C)[C@H](NC(=O)[C@H](CCC(=O)O)NC(=O)[C@H](CCC(=O)O)NC(=O)[C@H](Cc1ccc(OP(=O)(O)O)cc1)NC(C)=O)C(=O)N[C@@H](CCC(=O)O)C(N)=O` [Ac-pYEEIE-NH2] (Ac-[pY]EEIE-NH2) the “percent of DMSO vehicle control” value (GRB14; primary screen, 10 μM) was 56.1±7.2%, the “percent of DMSO vehicle control” value (TNS2; primary screen, 10 μM) was 104.0% and the “percent of DMSO vehicle control” value (GRAP; primary screen, 10 μM) was 112.9%. For the same molecule, the “percent of DMSO vehicle control” value (SOCS7; primary screen, 10 μM) was 110.9%, the “percent of DMSO vehicle control” value ([1]; primary screen, 10 μM) was 96.3±8.9% and the “percent of DMSO vehicle control” value (SYK(SH2dom1.dom2.)) was 126.1%. The “percent of DMSO vehicle control” value ([2]; primary screen, 10 μM) was 91.4±3.8%.

For `CC(=O)N[C@@H](Cc1ccc(CP(=O)(O)O)cc1)C(=O)NC1(C(=O)N[C@@H](CC(N)=O)C(=O)NCCCc2c(O)ccc3ccccc23)CCCCC1` [CGP78850], the remaining activity at 10 µM (GRB14) was 45.5 ± 1.4%, the Kd (TNS2) was 1200 nM and the remaining activity at 10 µM (TNS2) was 16%. It also gave a Kd (GRAP) of 3.3 nM, a percent of DMSO vehicle control at 10 µM (GRAP; [3]) of 0% and a remaining activity at 10 µM (SOCS7) of 126 ± 4.2%. The percent of DMSO vehicle control at 10 µM [1, 3] was 82.4 ± 3.2%, the “percent of DMSO vehicle control” value (SYK(SH2dom1.dom2.)) was 85.1±0.1% and the percent of DMSO vehicle control at 10 µM [2, 3] was 97.4 ± 6.3%. The remaining activity at 10 µM (ZAP70(SH2dom1.dom2.)) was 91.6 ± 5.3%.

With `CC[C@H](C)[C@H](NC(=O)[C@H](CCC(=O)O)NC(=O)[C@H](CCC(=O)O)NC(=O)[C@H](Cc1ccc(OP(=O)(O)O)cc1)NC(=O)/C=C/c1ccc(O)c(O)c1)C(=O)N[C@@H](CCC(=O)O)C(=O)O` [Caffeic acid-pYEEIE] (Caffeoyl-[pY]EEIE-OH) the Kd (GRB14) was 1200 ± 920 nM, the remaining activity at 10 µM (GRB14) was 0% and the Kd (TNS2) was 4300 ± 2500 nM. The remaining activity at 10 µM (TNS2) was 4.8 ± 1.3%, the percent of DMSO vehicle control at 10 µM (GRAP; [3]) was 109.9 ± 0.3% and the Kd (SOCS7) was 280 ± 140 nM. For the same molecule, the remaining activity at 10 µM (SOCS7) was 0.5 ± 0.4%, the percent of DMSO vehicle control at 10 µM [1, 3] was 81.4 ± 6.7% and the “percent of DMSO vehicle control” value (SYK(SH2dom1.dom2.)) was 72.6±6.4%. It also gave a percent of DMSO vehicle control at 10 µM [2, 3] of 108 ± 9.3%, a Kd (ZAP70(SH2dom1.dom2.)) of 6900 ± 3.8 nM and a remaining activity at 10 µM (ZAP70(SH2dom1.dom2.)) of 32.3 ± 1.6%.

For `O=C(CCl)Nc1cccc(CNC(=O)[C@H](Cc2ccc(OP(=O)(O)O)cc2)NC(=O)Cc2ccc(F)cc2)c1` [MN551], the remaining activity at 10 µM (GRB14; primary screen, 10 μM) was 62.1 ± 2.4%, the remaining activity at 10 µM (TNS2; primary screen, 10 μM) was 74.1 ± 2.1% and the remaining activity at 10 µM (GRAP; [4]) was 48.7%. For the same molecule, the Kd (SOCS7; dose-response, read-out: KD) was 8100 nM, the remaining activity at 10 µM (SOCS7; primary screen, 10 μM) was 21.9 ± 5% and the remaining activity at 10 µM [1, 4] was 95.7 ± 8.1%. For the same molecule, the “percent of DMSO vehicle control” value (SYK(SH2dom1.dom2.)) was 61.9±4.0%, the remaining activity at 10 µM [2, 4] was 171% and the remaining activity at 10 µM (ZAP70(SH2dom1.dom2.)) was 33.5%.
